Measured values reported in ChEMBL document CHEMBL1201862, “PubChem BioAssay data set” (2004).
The source made the active and inactive calls. Cut-off read from the data, not from the text of the source, for most assays here: actives have a measured EC50 and inactives only a lower limit.

What was measured:
[1] = NIH-3T3 fibroblast cytotoxicity, dose response, cytotoxicity control, cell-based, fluorescence, Alamar Blue, secondary assay (AID 2327); format: functional;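 note: NIH-3T3 mouse fibroblasts cultured with fluconazole at 8 µg/mL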
[2] = C. albicans growth with fluconazole, confirmation, fluorescence, retest (AID 2467); format: functional, cell-based
[3] = target: T1, RNA-binding protein pos-1 (Caenorhabditis elegans, UniProt G5EF15); assay: inhibitors of POS-1/mex-3 RNA binding, dose response, biochemical, fluorescence polarization (AID 1964);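 note: purified POS-1 fused to maltose binding protein made in E. coli; potency of compounds blocking POS-1 binding to fluorescent RNA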
T1 sequence (G5EF15 whole entry): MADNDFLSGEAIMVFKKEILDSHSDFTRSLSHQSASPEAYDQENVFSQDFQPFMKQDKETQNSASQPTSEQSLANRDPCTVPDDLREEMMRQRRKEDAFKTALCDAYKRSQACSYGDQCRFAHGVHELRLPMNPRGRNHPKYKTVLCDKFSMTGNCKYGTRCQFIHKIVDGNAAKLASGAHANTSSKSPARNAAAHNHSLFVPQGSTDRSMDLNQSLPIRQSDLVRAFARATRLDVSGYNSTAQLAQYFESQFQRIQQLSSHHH

[4] = tested on: Streptococcus sp. 'group A'; assay: growth inhibition of control SK(-) GAS strain, dose response, counter-screen for streptokinase expression inhibitor project, luminescence, kanamycin, BacTiterGlo, confirmation (AID 1900); format: functional, organism-based
[5] = target: T2, Zinc finger protein mex-5 (Caenorhabditis elegans, UniProt Q9XUB2); assay: MEX-5/TCR-2 RNA interaction inhibitors, dose response, biochemical, C. elegans, fluorescence polarization (AID 1960)
T2 sequence (Q9XUB2 whole entry): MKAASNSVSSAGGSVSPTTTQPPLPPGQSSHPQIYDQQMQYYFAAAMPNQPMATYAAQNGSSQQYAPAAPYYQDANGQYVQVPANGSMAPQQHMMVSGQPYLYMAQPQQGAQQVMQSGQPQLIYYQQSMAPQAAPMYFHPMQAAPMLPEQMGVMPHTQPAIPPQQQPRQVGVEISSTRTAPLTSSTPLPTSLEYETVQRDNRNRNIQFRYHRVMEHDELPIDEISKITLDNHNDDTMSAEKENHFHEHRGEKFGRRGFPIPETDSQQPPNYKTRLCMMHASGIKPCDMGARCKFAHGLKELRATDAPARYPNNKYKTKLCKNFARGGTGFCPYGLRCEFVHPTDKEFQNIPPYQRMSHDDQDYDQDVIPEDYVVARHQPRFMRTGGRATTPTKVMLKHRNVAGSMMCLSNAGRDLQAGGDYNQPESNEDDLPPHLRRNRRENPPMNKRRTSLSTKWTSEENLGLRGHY

[6] = target: T3, Streptokinase A (Streptococcus pyogenes serotype M1, UniProt P10520); assay: S. pyogenes streptokinase expression inhibitors, potency, dose response, plasminogen activation absorbance, OD405 (AID 1914); format: functional, Streptococcus pyogenes M1 GAS;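 note: secreted streptokinase activity via plasminogen activation per viability signal from cell pellet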
T3 sequence (P10520 whole entry): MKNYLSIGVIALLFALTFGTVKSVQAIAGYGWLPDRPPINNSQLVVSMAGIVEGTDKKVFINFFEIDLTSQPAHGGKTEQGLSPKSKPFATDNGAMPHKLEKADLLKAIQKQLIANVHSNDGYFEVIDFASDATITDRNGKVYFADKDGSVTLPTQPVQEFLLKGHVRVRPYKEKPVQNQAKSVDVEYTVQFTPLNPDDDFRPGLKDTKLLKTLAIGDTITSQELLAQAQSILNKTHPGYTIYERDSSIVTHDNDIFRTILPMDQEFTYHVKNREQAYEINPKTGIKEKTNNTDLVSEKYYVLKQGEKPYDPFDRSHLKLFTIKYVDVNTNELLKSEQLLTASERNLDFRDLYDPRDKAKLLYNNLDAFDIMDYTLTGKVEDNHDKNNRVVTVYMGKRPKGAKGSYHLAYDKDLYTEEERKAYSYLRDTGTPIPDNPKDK

[7] = tested on: Streptococcus; assay: Group A Streptococcus viability loss, dose response, counter-screen for streptokinase expression inhibitor project, luminescence, BacTiterGlo (AID 1915); format: functional, organism-based;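 note: potency for reduction of bacterial viability or growth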
[8] = tested on: H9c2; assay: cells; format: functional, cell-based; conditions: Rattus norvegicus, H9c2, Myocardium;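 note: confirmatory concentration-response retest of ultra-high-throughput screening hits for modulation of myocardial damage; cell death induced by hydrogen peroxide oxidative stress; compound pretreatment for 60 min then peroxide exposure for 2 h; potency is for protecting the cells against peroxide damage rather than for killing them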
[9] = target: T4, Corticotropin-releasing factor receptor 2/Corticotropin-releasing factor-binding protein (Homo sapiens, UniProt P24387+Q13324); assay: Dose Response confirmation of uHTS hits for small molecule antagonists of the CRF-binding protein and CRF-R2 receptor complex.; format: functional; conditions: read-out: IC50_Mean
T4 sequence (Q13324 whole entry): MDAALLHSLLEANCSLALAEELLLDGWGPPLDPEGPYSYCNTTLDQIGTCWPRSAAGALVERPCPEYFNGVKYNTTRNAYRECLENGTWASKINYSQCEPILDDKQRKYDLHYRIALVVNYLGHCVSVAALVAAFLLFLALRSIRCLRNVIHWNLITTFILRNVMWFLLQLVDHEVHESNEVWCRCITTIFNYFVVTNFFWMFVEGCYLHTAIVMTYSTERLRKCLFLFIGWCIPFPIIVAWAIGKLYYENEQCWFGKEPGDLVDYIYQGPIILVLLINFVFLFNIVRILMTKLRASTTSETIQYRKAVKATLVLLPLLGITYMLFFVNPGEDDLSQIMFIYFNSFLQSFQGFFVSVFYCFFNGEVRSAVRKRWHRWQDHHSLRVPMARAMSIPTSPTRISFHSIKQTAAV
T4 sequence (P24387 whole entry): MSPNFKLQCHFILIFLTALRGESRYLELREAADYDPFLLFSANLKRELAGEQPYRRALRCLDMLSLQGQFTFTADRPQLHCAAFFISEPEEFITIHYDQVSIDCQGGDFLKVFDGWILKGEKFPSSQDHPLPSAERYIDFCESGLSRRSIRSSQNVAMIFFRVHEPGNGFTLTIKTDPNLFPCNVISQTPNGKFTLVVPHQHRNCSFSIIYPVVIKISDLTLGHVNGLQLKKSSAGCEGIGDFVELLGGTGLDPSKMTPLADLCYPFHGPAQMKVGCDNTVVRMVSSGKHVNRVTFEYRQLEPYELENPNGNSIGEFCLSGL

[10] = target: T4, Corticotropin-releasing factor receptor 2/Corticotropin-releasing factor-binding protein; assay: activators of CRF receptor 2 with binding protein – uHTS hits, confirmation (AID 602473); format: functional; conditions: read-out: EC50_Mean

Compound | EC50 [1] | EC50 [2] | IC50 [8] | further results
O=C(NNC(=O)c1cc2ccccc2cc1O)Nc1ccccc1F | > 160 µM (inactive) | > 38 µM (not active) | – | –
COc1ccccc1Oc1c[nH]nc1-c1ccc(OCC(=O)NN)cc1O | – | – | – | EC50 [3]: > 300 µM (not active); EC50 [4]: > 150 µM (not active); EC50 [5]: 120 µM (active); EC50 [6]: > 150 µM (not active); EC50 [7]: > 150 µM (not active)
CCCCNC(=O)c1cn(-c2ccc(OCC)cc2)c(=O)c2cc(OC)c(OC)cc12 | – | – | 15.3 µM (active) | –
COc1ccc(C(C(=O)NC2CCCCC2)N(Cc2cccs2)C(=O)Cc2c[nH]c3ccccc23)cc1OC (stereo unspecified) | – | – | > 79 µM (inactive) | IC50 [9]: > 47.1 µM (inactive); EC50 [10]: > 53 µM (inactive)
Cc1cccc(NC(=O)c2[nH]cnc2C(=O)NCCCCCCNC(=O)c2nc[nH]c2C(=O)Nc2cccc(C)c2)c1 | – | – | 14.4 µM (active) | –
O=C(ONC1=NCCCCC1)c1cccc([N+](=O)[O-])c1 | > 150 µM (inactive) | 2.12 µM (active) | – | –
O=C(COC(=O)Cn1[nH]c(=O)c2ccccc2c1=O)Nc1ncc(Cl)cc1Cl | – | – | > 79 µM (inactive) | –
CCn1c(SCC(=O)N2CCCCC2)nc2c(c1=O)SCC2 | – | – | – | IC50 [9]: > 47.1 µM (inactive); EC50 [10]: > 53 µM (inactive)
CCN(C[C@H]1N[C@@](Cc2ccccc2)(C(=O)OC)[C@H]2C(=O)N(C)C(=O)[C@@H]12)S(=O)(=O)c1ccc(OC)cc1 | – | – | 7.53 µM (active) | –
Cc1cc(NC(=O)CN2C(=O)NC(CC(C)C)C2=O)no1 (stereo unspecified) | – | – | – | IC50 [9]: > 47.1 µM (inactive); EC50 [10]: > 53 µM (inactive)
CN(CC(=O)Nc1cccc(F)c1)C(=O)Cc1nnc(O)c2ccccc12 | – | – | 25.6 µM (active) | –
CC(C)c1ccc(/C=N/NC(=O)c2cc(-c3cccc([N+](=O)[O-])c3)[nH]n2)cc1 | – | – | – | IC50 [9]: > 47.1 µM (inactive); EC50 [10]: > 53 µM (inactive)
CCO/C(O)=C1\C(C)=NC(C)=C(C(=O)OCCNC(=O)c2cccnc2)C1c1cccc([N+](=O)[O-])c1 (stereo unspecified) | – | – | > 79 µM (inactive) | –
C=C(C)CNC(=S)N/N=C1\CCCCc2ccccc21 | 62.5 µM (active) | 6.24 µM (active) | – | –
COCCn1c(-c2ccccc2)cs/c1=N\c1cccnc1 | – | – | – | IC50 [9]: 22.3 µM (active); EC50 [10]: > 53 µM (inactive)
Cc1ccsc1/C=N/NS(=O)(=O)c1ccc([N+](=O)[O-])cc1 | > 150 µM (inactive) | 1.81 µM (active) | – | –
CN(/C(=N/S(=O)(=O)c1cccs1)c1ccccc1)c1ccc(O)cc1 | > 150 µM (inactive) | > 38 µM (not active) | – | –
C[C@]12CC[C@H]3[C@@H](CC[C@H]4C[C@@H](O)CC[C@@]43C)[C@@H]1C[C@@H](O)C2 | – | – | > 79 µM (inactive) | –
Cc1c(C#N)c(N)nc2c3c(sc12)NC(=O)CC3c1ccccc1 (stereo unspecified) | – | – | 32.6 µM (inactive) | –
O=C1NCCN1CCNS(=O)(=O)c1cc(C(F)(F)F)cc(C(F)(F)F)c1 | > 150 µM (inactive) | > 38 µM (not active) | – | –
